In general, EC50 refers to the concentration at which the effect is half-maximal.

Calls of active or inactive are those of the source.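 How the source made its calls: active means compounds whose half-maximal activation potency EC50 is 10 µM or stronger; inactive means the rest.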

In PubChem BioAssay AID651555 (The Scripps Research Institute Molecular Screening Center, 2012) one finds EC50 data, which are given here for 23 molecules.

The target in the experiment is Melanocortin receptor 4 (Homo sapiens) (UniProt P32245). As to the kind of experiment: activators of MC4R arrestin recruitment – cell-based, luminescence, agonists, late-stage follow-up (AID 651555). Conditions: U2OS MC4R beta-arrestin recruitment, beta-gal luminescence. In general terms: Arrestin recruitment assays detect the binding of arrestin to an activated receptor.
Sequence of Melanocortin receptor 4 (Homo sapiens) (P32245 whole entry, looked up): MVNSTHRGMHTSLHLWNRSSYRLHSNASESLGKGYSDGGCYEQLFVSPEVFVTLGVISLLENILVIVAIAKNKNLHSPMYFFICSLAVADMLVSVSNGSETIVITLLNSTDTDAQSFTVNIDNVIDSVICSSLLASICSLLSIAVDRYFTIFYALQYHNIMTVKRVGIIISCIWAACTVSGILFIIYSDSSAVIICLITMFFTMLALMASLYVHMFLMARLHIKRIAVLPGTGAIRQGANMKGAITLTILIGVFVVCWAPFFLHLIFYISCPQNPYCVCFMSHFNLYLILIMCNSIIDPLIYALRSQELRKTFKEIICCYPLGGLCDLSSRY

On to `CNC(=O)c1cc(Oc2ccc(NC(=O)Nc3ccc(Cl)c(C(F)(F)F)c3)cc2)ccn1`, for which the EC50 was > 50 µM (inactive). In the case of `COc1ccccc1C1(CCNC(C)c2cccs2)CCOC(C(C)C)C1` (stereo not drawn), the EC50 is > 50 µM (inactive).

In the case of `OC(COc1ccc2ccccc2c1)CN1CCC(Nc2nc3ccccc3o2)CC1` (stereo not drawn), the EC50 is > 50 µM (inactive). As for `CNC(=O)c1cc(Oc2ccc(NCC(=O)Nc3ccc(Cl)c(C(F)(F)F)c3)cc2)ccn1`, the EC50 was > 50 µM (inactive). Take `CCC1CCCCN1S(=O)(=O)c1ccc(NC(=O)c2ccnc(SC)n2)cc1` (stereo not drawn): the EC50 was > 50 µM (inactive). For `CC(=O)Nc1cc(-c2ccc(N(C)C)cc2)cn2c(-c3ccc(F)c(F)c3)cnc12`, the EC50 is > 50 µM (inactive). As for `CC1CCCCN1S(=O)(=O)c1ccc(NC(=O)c2nc(S(C)(=O)=O)ncc2Cl)cc1` (stereo not drawn), the EC50 is > 50 µM (inactive). With `CCOC(=O)C1(c2ccccc2)CCN(CC(O)COc2ccc3ccccc3c2)CC1` (stereo not drawn), the EC50 was > 50 µM (inactive).

Take `CC(=O)Nc1cc(-c2ccc(N(C)C)cc2)cn2c(-c3ccc(F)cc3)cnc12`: the EC50 is > 50 µM (inactive). Consider `CNC(=O)c1cc(Oc2ccc(NC(=O)CNc3ccc(Cl)c(C(F)(F)F)c3)cc2)ccn1`, for which the EC50 is > 50 µM (inactive). For `C#CC(=O)N(c1ccc(OC)c(OC)c1)C(C(=O)NC1CCCC1)c1cccs1` (stereo not drawn), the EC50 was > 50 µM (inactive). As to `Cc1ccccc1OCC(O)CN1CCC(CN2C(=O)c3cccc4cccc(c34)C2=O)CC1` (stereo not drawn), the EC50 was > 50 µM (inactive). Then `O=c1[nH]c2ccccc2n1C1CCN(CC(O)COc2ccc3ccccc3c2)CC1` (stereo not drawn), with > 50 µM (inactive); and `CC(=O)Nc1cc(-c2ccc(N(C)C)cc2)cn2c(-c3ccc(F)c(Cl)c3)cnc12`, with > 50 µM (inactive). The value for `CCC1CCCCN1S(=O)(=O)c1ccc(NC(=O)c2ccccc2)cc1` (stereo not drawn) was “inactive”; that for `CCC1CCCCN1S(=O)(=O)c1ccc(NC(=O)c2nc(S(C)(=O)=O)ncc2Cl)cc1` (stereo not drawn) was > 50 µM (inactive); that for `O=C1c2cccc3cccc(c23)C(=O)N1CC1CCN(CC(O)COc2ccc3ccccc3c2)CC1` (stereo not drawn) was “inactive”. For the molecule `Cc1ccccc1CN1Cc2cnnn2-c2ccccc2C1C#N` (stereo not drawn), the EC50 is > 50 µM (inactive). Then `CC(=O)N(C)c1cc(-c2ccc(N(C)C)cc2)cn2c(-c3ccc(F)c(Cl)c3)cnc12`, with > 50 µM (inactive). Consider `CCC1CCCCN1S(=O)(=O)c1ccc(NC(=O)c2cccc(S(C)(=O)=O)c2)cc1` (stereo not drawn), for which the EC50 is > 50 µM (inactive). For `O=C1c2cccc3cccc(c23)C(=O)N1CC1CCN(CC(O)COc2ccccc2)CC1` (stereo not drawn), the EC50 was > 50 µM (inactive). For `COc1ccc(N(C(C)=O)C(C(=O)NC2CCCC2)c2cccs2)cc1OC` (stereo not drawn), the EC50 was > 50 µM (inactive). Then `CC(=O)c1ccc(Nc2nc3ccc(C(=O)N(CCC(C)C)CCC(C)C)cc3n2CCCN2CCCCC2)cc1`, with > 50 µM (inactive).
